Values after ≈ are worked out from the molar mass of the structure shown. Read-outs that look alike come from different tables or passages of the source.
Tests used:
[1] = tested on: isolated liver mitochondria; test: Mitochondrial oxygen consumption rate (OCR) assay; assay type: biochemical, Sprague-Dawley rats; conditions: isolated rat liver mitochondria, state 3 (S3) respiration, glutamate/malate; Table 3
Text: Male Sprague-Dawley rats (8-10 weeks of age) were euthanized with an overdose of carbon dioxide. The liver was rapidly excised and placed in ice-cold phosphate-buffered saline (PBS) before isolation process. Mitochondria were isolated using the MitoCheck® Mitochondrial Isolation Kit (Cayman Chemical #701010, Ann Arbor, Mich.) according to manufacturer's instructions. In brief, approximately 10-14 grams of liver tissues were finely minced using a pair of scissors, and washed repeatedly with ice-cold PBS, followed by Mito Isolation Buffer. The minced tissues were homogenized with 30 ml Mito Homogenization Buffer in 40 ml dounce homogenizer and a smooth glass grinder. The homogenate was split into two clean 30 ml polycarbonate tubes and centrifuged at 1,000×g, 4° C., for 3 minutes. The supernatant was subjected to further centrifugation at 10,000×g, 4° C., for 10 minutes. The supernatant was discarded and mitochondrial pellet was suspended in Mito Isolation Buffer using a glass stirring rod and stored on ice until use. Protein concentration of mitochondria was determined using a bicinchoninic acid protein assay kit (Thermo Scientific, Waltham, Mass.).
Oxygen consumption was monitored as essentially described by Will et al., “Analysis of mitochondrial function using phosphorescent oxygen-sensitive probes,” Nature Protocols Vol. 1(6) (2006) 2563. Briefly, isolated mitochondria (50 μg mitochondrial proteins/state 3 (S3) of mitochondrial respiration for inhibitor identification, 100 μg/S2 for uncoupler identification) were incubated with compounds in 25 μl of Measurement Buffer (MB: 250 mM sucrose, 15 mM KCl, 1 mM EGTA, 5 mM MgCl2, 30 mM K2HPO4, pH 7.4) including 1% DMSO on ice for 1 hour, then mixed with 25 μl of substrate mixture including an oxygen-sensitive phosphorescent dye (MitoXpress Xtra, Agilent, Santa Clara, Calif.), glutamate (25 mM, G1626, Sigma, St. Louis, Mo.), malate (25 mM, M6413, Sigma), ADP (3.3 mM, A2754, Sigma, only for S3 of mitochondrial respiration), Fatty acid free BSA (0.1%, A0281, Sigma), and a complex II-specific inhibitor TTFA (2 μM, T27006, Sigma for the assessment of complex I-mitochondrial respiration with glutamate/malate) in a black wall/clear bottom 384-well plate. The mixtures were covered with HS mineral oil (Agilent) using the Viaflo 384-channel pipette (Integra, Hudson, N.H.). Oxygen consumption was measured for 30 min at 30° C. using a spectrofluorimeter (FLUOstar Omega, BMG Labtech, Cary, N.C.). In S3, DMSO vehicle control and antimycin A (10 μM) were used to define 0% and 100% inhibition. In S2, DMSO vehicle and FCCP (0.5-1 μM) was used to define 0% and 100% uncoupling, respectively. Area under curve typically in a range of 0-12 min (S3) or 0-24 min (S2) was used for calculations. IC50 or UC50 (uncoupling concentration), a concentration that causes 50% of inhibition or maximal (uncoupling) activation of oxygen consumption, was used to evaluate experimental quality. Data were presented as μM (per 50 μg (S3) or 100 μg (S2) mitochondrial proteins). Compounds with IC50: <100 μM (S3) and/or UC50: <200 μM (S2) were considered as high-risk on mitochondrial toxicity. Compounds with 25-50% changes in inhibition and/or uncoupling were categorized as medium-risk, since compounds with >25% changes are considered as responders.
Toxicity associated with mitochondrial dysfunction has presented a problem for promising potential antibiotics as we as other types of therapeutics. The mitochondrial oxygen consumption rate (OCR) assay is considered a reliable indicator of potential internal organ toxicity issues that may occur with powerful antibiotics. The carboxylate compounds of the invention show unexpected lower toxicity than prior art “glycine nitrile” arylomycin analogs (see, e.g., WO 2018/149419) in the mitochondrial oxygen consumption rate (OCR) assay.

[2] = tested on: Acinetobacter baumannii ATCC 17978; test: Serum MIC, broth micro-dilution; assay type: cell-based; conditions: Acinetobacter baumannii, ATCC17978, 50% v/v mouse serum in Mueller Hinton II cation adjusted Broth, 35° C., 22 hours
Procedure, shortened: (§1)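 MIC read after 22 h at 35° C by CLSI broth micro-dilution, with medium containing 50% v/v mouse serum in cation-adjusted Mueller Hinton II broth. Ten 2-fold compound concentrations were tested, starting at 64, 4, 0.5 or 0.13 μg/mL.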

[3] = tested on: Escherichia coli strain ATCC 25922; test: Serum MIC, broth micro-dilution; assay type: cell-based; conditions: Escherichia coli, ATCC25922; 50% v/v mouse serum in Mueller Hinton II cation adjusted Broth, 35° C., 22 hours; Table 4; read-out: E. coli 25922 Serum MIC
Procedure, shortened: as §1

[4] = tested on: Klebsiella pneumoniae ATCC 700603; test: Serum MIC, broth micro-dilution; assay type: cell-based; conditions: Klebsiella pneumoniae, ATCC700603; 50% v/v mouse serum in Mueller Hinton II cation adjusted Broth, 35° C., 22 hours; Table 4; read-out: K pneumoniae 700603 Serum MIC
Procedure, shortened: as §1

[5] = tested on: Pseudomonas aeruginosa PA01; test: Serum MIC, broth micro-dilution; assay type: cell-based; conditions: Pseudomonas aeruginosa, PA01; 50% v/v mouse serum in Mueller Hinton II cation adjusted Broth, 35° C., 22 hours; Table 4; read-out: P. aeruginosa 01 Serum MIC
Procedure, shortened: as §1

[6] = Table 4, read-out: A. baumanii 17978 Serum MIC
[7] = Table 5, read-out: Acinetobacter baumanii 17978 Serum MIC

IC50 [1] [µM] | MIC [2, 6] [µM] | MIC [2, 7] [µM] | MIC [3] [µM] | MIC [4] [µM] | MIC [5] [µM] | Structure (SMILES)
> 100 | 16 (≈ 16.7 µg/mL) | 16 (≈ 16.7 µg/mL) | 0.5 (≈ 0.522 µg/mL) | 0.5 (≈ 0.522 µg/mL) | 12 (≈ 12.5 µg/mL) | Cc1nc(-c2ccc(C(F)(F)C(C)C)cc2)nc(N)c1C(=O)N[C@@H](CNS(N)(=O)=O)C(=O)N(C)[C@@H]1C(=O)N[C@@H](C)C(=O)N[C@H](C(=O)O)Cc2ccc(OC[C@H](O)CN)c(c2)-c2cc1cc(OC[C@H](O)CN)c2O [Example 38, (8S,11S,14S)-14-[[(2S)-2-[[4-amino-2-[4-(1,1-difluoro-2-methyl-propyl)-phenyl]-6-methyl-pyrimidine-5-carbonyl]amino]-3-(sulfamoylamino)-propanoyl]-methyl-amino]-3,17-bis[(2R)-3-amino-2-hydroxy-propoxy]-18-hydroxy-11-methyl-10,13-dioxo-9,12-diazatri-cyclo[13.3.1.12,6]icosa-1(18),2(20),3,5,15(19), 16-hexaene-8-carboxylic acid]
44 | 8 (≈ 8.19 µg/mL) | 8 (≈ 8.19 µg/mL) | 0.5 (≈ 0.512 µg/mL) | 0.5 (≈ 0.512 µg/mL) | 4 (≈ 4.1 µg/mL) | Cc1nc(-c2ccc(C(C)(C)C)cc2O)nc(N)c1C(=O)N[C@@H](CNS(N)(=O)=O)C(=O)N(C)[C@@H]1C(=O)N[C@@H](C)C(=O)N[C@H](C(=O)O)Cc2ccc(OC[C@H](O)CN)c(c2)-c2cc1cc(OC[C@H](O)CN)c2O [Example 44, (8S,11S,14S)-14-[[(2S)-2-[[4-amino-2-(4-tert-butyl-2-hydroxy-phenyl)-6-methyl-pyrimidine-5-carbonyl]amino]-3-(sulfamoylamino)-propanoyl]-methyl-amino]-3,17-bis[(2R)-3-amino-2-hydroxy-propoxy]-18-hydroxy-11-methyl-10,13-dioxo-9,12-diazatricyclo-[13.3.1.12,6]icosa-1(18),2(20),3,5,15(19), 16-hexaene-8-carboxylic acid]
> 100 | 16 (≈ 16.4 µg/mL) | 16 (≈ 16.4 µg/mL) | 1 (≈ 1.03 µg/mL) | 1 (≈ 1.03 µg/mL) | 6 (≈ 6.16 µg/mL) | Cc1nc(-c2ccc(C(C)(C)C)cc2F)nc(N)c1C(=O)N[C@@H](CNS(N)(=O)=O)C(=O)N(C)[C@@H]1C(=O)N[C@@H](C)C(=O)N[C@H](C(=O)O)Cc2ccc(OC[C@H](O)CN)c(c2)-c2cc1cc(OC[C@H](O)CN)c2O [Example 62, (8S,11S,14S)-14-[[(2S)-2-[[4-amino-2-(4-tert-butyl-2-fluoro-phenyl)-6-methyl-pyrimidine-5-carbonyl]-amino]-3-(sulfamoyl-amino)propanoyl]-methyl-amino]-3,17-bis[(2R)-3-amino-2-hydroxy-propoxy]-18-hydroxy-11-methyl-10,13-dioxo-9,12-diazatricyclo-[13.3.1.12,6]icosa-1(18),2(20),3,5,15(19), 16-hexaene-8-carboxylic acid]
> 100 | 8 (≈ 8.06 µg/mL) | 8 (≈ 8.06 µg/mL) | 0.5 (≈ 0.504 µg/mL) | 0.5 (≈ 0.504 µg/mL) | 4 (≈ 4.03 µg/mL) | Cc1nc(-c2ccc(C(C)(C)C)cc2)nc(N)c1C(=O)N[C@@H](CNS(N)(=O)=O)C(=O)N(C)[C@@H]1C(=O)N[C@@H](C)C(=O)N[C@H](C(=O)O)Cc2ccc(OC[C@@H](O)CN)c(c2)-c2cc1cc(OC[C@@H](O)CN)c2O [Example 64, (8S,11S,14S)-14-[[(2S)-2-[[4-amino-2-(4-tert-butylphenyl)-6-methyl-pyrimidine-5-carbonyl]amino]-3-(sulfamoylamino)-propanoyl]-methyl-amino]-3,17-bis[(2S)-3-amino-2-hydroxy-propoxy]-18-hydroxy-11-methyl-10,13-dioxo-9,12-diazatri-cyclo[13.3.1.12,6]icosa-1(18),2(20),3,5,15(19), 16-hexaene-8-carboxylic acid]

The next lines start with the molecule.

Structure (SMILES) | IC50 [1] [µM] | MIC [2, 6] [µM] | MIC [2, 7] [µM] | MIC [3] [µM] | MIC [4] [µM] | MIC [5] [µM]
C[C@@H]1NC(=O)[C@@H](N(C)C(=O)[C@H](CCN)NC(=O)c2c(N)nc(-c3ccc(C(C)(C)C)cc3)nc2C(F)F)c2cc(OC[C@H](O)CN)c(O)c(c2)-c2cc(ccc2OC[C@H](O)CN)C[C@@H](C(=O)O)NC1=O [Example 32, (8S,11S,14S)-18-hydroxy-11-methyl-14-[methyl-[(2S)-4-amino-2-[[2-(4-tert-butylphenyl)-4-amino-6-difluoro-methyl-pyrimidine-5-carbonyl]amino]-butanoyl]amino]-10,13-dioxo-3,17-bis[(2R)-3-amino-2-hydroxy-propoxy]-9,12-diazatricyclo-[13.3.1.12,6]icosa-1(18),2(20),3,5,15(19), 16-hexaene-8-carboxylic acid] | > 100 | 4 (≈ 3.92 µg/mL) | 4 (≈ 3.92 µg/mL) | 0.25 (≈ 0.245 µg/mL) | 0.25 (≈ 0.245 µg/mL) | 16 (≈ 15.7 µg/mL)
Cc1nc(-c2ccc(C(C)(C)C)cc2O)nc(N)c1C(=O)N[C@@H](CCN)C(=O)N(C)[C@@H]1C(=O)N[C@@H](C)C(=O)N[C@H](C(=O)O)Cc2ccc(OC[C@H](O)CN)c(c2)-c2cc1cc(OC[C@H](O)CN)c2O [Example 43, (8S,11S,14S)-14-[[(2S)-4-amino-2-[[4-amino-2-(4-tert-butyl-2-hydroxy-phenyl)-6-methyl-pyrimidine-5-carbonyl]amino]-butanoyl]-methyl-amino]-3,17-bis[(2R)-3-amino-2-hydroxy-propoxy]-18-hydroxy-11-methyl-10,13-dioxo-9,12-diazatricyclo-[13.3.1.12,6]icosa-1(19),2(20),3,5,15,17-hexaene-8-carboxylic acid] | > 100 | 8 (≈ 7.67 µg/mL) | 8 (≈ 7.67 µg/mL) | 0.25 (≈ 0.24 µg/mL) | 0.25 (≈ 0.24 µg/mL) | 8 (≈ 7.67 µg/mL)
Cc1nc(-c2ccc(C(C)(C)C)cc2)nc(N)c1C(=O)N[C@@H](CNS(N)(=O)=O)C(=O)N(C)[C@@H]1C(=O)N[C@@H](C)C(=O)N[C@H](C(=O)O)Cc2ccc(OC[C@H](O)CN)c(c2)-c2cc1cc(OC[C@@H](O)CN)c2O [Example 50, (8S,11S,14S)-14-[[(2S)-2-[[4-amino-2-(4-tert-butylphenyl)-6-methyl-pyrimidine-5-carbonyl]amino]-3-(sulfamoylamino)-propanoyl]-methyl-amino]-3-[(2R)-3-amino-2-hydroxy-propoxy]-17-[(2S)-3-amino-2-hydroxy-propoxy]-18-hydroxy-11-methyl-10,13-dioxo-9,12-diazatri-cyclo[13.3.1.12,6]icosa-1(19),2(20),3,5,15,17-hexaene-8-carboxylic acid] | > 100 | 8 (≈ 8.06 µg/mL) | 8 (≈ 8.06 µg/mL) | 0.75 (≈ 0.756 µg/mL) | 0.75 (≈ 0.756 µg/mL) | 4 (≈ 4.03 µg/mL)

Source: patent US11208387B2, “Macrocyclic broad spectrum antibiotics” (Genentech, Inc., priority 2019, dated 2021)
